Tests used:
[1] = test system: human neutrophils, monocytes, B-cells, and monocyte-derived dendritic cells; test: Binding of soluble β-glucan to immune cells, flow cytometry with glucan specific Ab BFD IV; assay type: cell-based; conditions: for binding to immune cells: human neutrophils, monocytes, monocyte-derived dendritic cells
Method: Monocyte-derived dendritic cells (MoDCs) were prepared from blood obtained from healthy volunteers as described in Peters et al. (Advances in Experimental Medicine and Biology; 329:275-280; 1993). At day 7, the MoDCs were resuspended in RPMI 1640 supplemented with 10% human serum (Sigma-Aldrich, St. Louis, Mo.). PBMCs were obtained from healthy volunteers and similarly resuspended in RPMI 1640 supplemented with 10% human serum. The MoDCs and PBMCs were treated with vehicle alone or with IMPRIME (Biothera, Eagan, Minn.) at 100 μg/mL, 200 μg/mL, or 400 μg/mL for two hours. Binding of IMPRIME was assessed by flow cytometric analysis with a glucan specific Ab BFD IV (U.S. Pat. No. 6,084,092).

B cells (CD19+) in PBMCs [2] = test: Modulation of TLR 9 agonist CpG 2006-induced B cell proliferation (CFSE dilution, FACS); assay type: cell-based; conditions: 100 nM CpG 2006 with 50 μg/mL IMPRIME PGG, five days, 10% human serum
Method: (§1) TLR activation of B cells induces cellular proliferation that can be measured by a reduction in the staining intensity of the intracellular dye, carboxyfluorescein succinimidyl ester (CFSE, Invitrogen, Life Technologies Corp., Carlsbad, Calif.). The principle behind this technique is that as a cell divides the CFSE dye is diluted in half between the daughter cells after each division.
PBMCs obtained from healthy volunteers were treated with 100 nM CpG 2006 (InvivoGen, San Diego, Calif.) in the presence or absence of 50 μg/mL IMPRIME PGG (Biothera, Eagan, Minn.) and cultured over five days in media containing 10% fresh human serum (Sigma-Aldrich, St. Louis, Mo.). The cells were stained with an anti-CD19 antibody (BioLegend, Inc., San Diego, Calif.) to identify the B cell subset in the PBMC mixture and intensity of CFSE staining was measured my FACS analysis (BD Biosciences, San Jose, Calif.).

[3] = test system: monocytes (CD14+) in PBMCs; test: Modulation of TLR 4 agonist LPS-induced co-stimulatory marker CD40 expression by monocytes (FACS); assay type: cell-based, human
Method: PBMCs obtained from healthy volunteers were treated with 25 ng/mL LPS (InvivoGen, San Diego, Calif.) either concurrently with noted doses of IMPRIME PGG (Biothera, Eagan, Minn.) or after cells were pretreated overnight with IMPRIME PGG. The cells were cultured over five days in media containing 10% fresh human serum and then stained with an anti-CD14 antibody (BioLegend, Inc., San Diego, Calif.) to identify the monocyte subset in the PBMC mixture and an anti-CD40 antibody (BioLegend, Inc., San Diego, Calif.) to evaluate CD40 expression by FACS analysis (BD Biosciences, San Jose, Calif.).

[4] = test system: systemic pro-inflammatory cytokines; test: Induction of systemic pro-inflammatory cytokines
B cells (CD19+) in PBMCs [5] = test: Modulation of TLR 7/8 agonist CL097-induced B cell proliferation (CFSE dilution, FACS); assay type: cell-based; conditions: 2 μM CL097 with 50 μg/mL IMPRIME PGG, five days, 10% human serum
Method: as §1
PBMCs obtained from healthy volunteers were treated with 2 μM CL097 (InvivoGen, San Diego, Calif.) in the presence or absence of 50 μg/mL IMPRIME PGG (Biothera, Eagan, Minn.) and cultured over five days in media containing 10% fresh human serum (Sigma-Aldrich, St. Louis, Mo.). The cells were stained with an anti-CD19 antibody (BioLegend, Inc., San Diego, Calif.) to identify the B cell subset in the PBMC mixture and intensity of CFSE staining was measured my FACS analysis (BD Biosciences, San Jose, Calif.).

| Substance | binding to immune cells [1] | B cell proliferation compared to PBMCs treated with only the TLR agonist (B cells (CD19+) in PBMCs [2]) | CD40 expression effect with pre-incubation ([3]; PBMCs pre-incubated overnight with IMPRIME PGG before 25 ng/mL LPS) | CD40 expression compared to treating the PBMCs with only the TLR agonist ([3]; PBMCs, 25 ng/mL LPS concurrently with IMPRIME PGG, five days) | receptors through which immune cell subsets are bound ([1]; neutrophils and monocytes) | induction of systemic pro-inflammatory cytokines [4] | B cell proliferation compared to PBMCs treated with only the TLR agonist (B cells (CD19+) in PBMCs [5]) |
| --- | --- | --- | --- | --- | --- | --- | --- |
| laminarin [reference compound] | can bind | – | – | – | – | – | – |
| β(1,6)-[poly-1,3)-D-glucopyranosyl]-poly-β(1,3)-D-glucopyranose [IMPRIME PGG] | can bind | increases B cell proliferation | magnified | an increase in CD40 expression | through complement binding receptors (CR2 on B-cells; CR3 on neutrophils and monocytes), not a TLR | do not appear to induce systemic pro-inflammatory cytokines | increases B cell proliferation |

From US10166289B2, “Compositions including beta-glucans and method of use” (BIOTHERA, INC., priority 2011, dated 2019)
